In US8293786B2 (Alltranz Inc., priority 2007, dated 2012):

How the values were obtained:
human abdominal skin = assay: In vitro human skin permeation and skin disposition, flow-through diffusion cells (Examples 2, 2A, 2B); assay type: in vitro ADME; details: for 30 h cumulative amt / 30 h skin conc / Flux / Lag time / Flux enhancement / 24 h cumulative amt / 24 h skin conc: 40% aqueous PEG 400 receiver fluid; for Flux enhancement: total cannabidiol versus cannabidiol
Protocol: Flow through diffusion cells were used for the permeation studies. HEPES-buffered Hanks' balanced salts containing 40% PEG 400 with gentamicin or 40% aqueous PEG 400 with gentamicin were used for the receiver compartment. Donor solution was comprised of 90:8:2 PG:H2O:IPM solution or gel formulation. […] Drug accumulation in the skin after a 24, 30 or 42 h diffusion experiment was determined as μmol/g wet tissue weight.
The skin samples used in the following experiments were obtained from abdominal reduction surgery and dermatomed to a thickness of approximately 200 μm. The skin samples used herein were frozen at −20° C. for less than six months.
One (1) L of receiver fluid was prepared by measuring 1 L of nanopure water into a graduated cylinder. 90% of the water was added to an Erlenmeyer flask. Hanks' salts (1 bottle) were added to the water along with 5.96 g of HEPES and 0.35 g of sodium bicarbonate. The pH of the solution was adjusted with 1 N sodium hydroxide solution to pH 7.4. The remaining water was added and the receiver fluid was filtered through a 0.2μ filter (Millipore, Billerica, Mass.). Fifty (50) mg of gentamicin was added to the filtered receiver fluid and 400 mL of the receiver fluid was removed and replaced with 400 mL of PEG 400.
The receiver fluid was prepared by measuring 600 mL of nanopure H2O into a graduated cylinder. The H2O was filtered through a 0.2μ filter (Millipore, Billerica, Mass.). Fifty (50) mg of gentamicin was added to the filtered H2O and 400 mL of PEG 400 was added.
The prodrugs were made up in a solution of 45:4:1 PG:H2O:IPM. For this solution, the appropriate amount of drug was weighed into a glass silanized culture tube and IPM was added, the 50 μL of PG to coat the drug, then an additional 247 μL PG was added and the donor solution was vortexed again. Finally 26 μL of water was added. The gel formulation resulted from the mixing of absolute ethanol, nanopure water, IPM, Carbopol® 980, 0.1 N sodium hydroxide solution and the respective drug.
The gel formulation was comprised of absolute ethanol, nanopure water, IPM, Carbopol® 980, 0.1 sodium hydroxide solution and respective drug. The anhydrous gel was comprised of absolute ethanol, PEG monoethyl ether 550, Klucel® hydroxypropylcellulose, and respective drug.
Dermatomed skin harvested from abdominoplasty, stored at −20° C., was used for the experiments. A PermeGear flow-through (In-Line, Hellertown, Pa.) diffusion cell system was used for the skin permeation studies.
Diffusion cells were kept at 32° C. with a circulating water bath. Human epidermal skin was arranged in the diffusion cell with stratum corneum (upper layer of skin) facing the donor compartment. The permeation area of the skin was 0.95 cm^2. The data was collected from a human skin donor with three diffusion cells per treatment.
The receiver solution was HEPES-buffered Hanks' balanced salts with gentamicin containing 40% PEG 400 at a pH of 7.4 or 40% aqueous PEG 400 and flow rate was adjusted to 0.8 mL/h. Each cell was charged with 0.10 mL of the respective drug formulation (donor solution) or 50 μL of gel formulation which was rubbed into the skin for 15 sec with a Teflon coated rod. The formulation was applied to ensure complete coverage. […]. Diffusion cells were covered with a stopper or cap for the duration of the study.
Samples were collected into scintillation vials in 3 h increments for either 24, 30, or 42 h. All the samples were stored at 4° C. until extracted. An aliquot (0.5 mL) of the diffusion sample was placed into a silanized HPLC vial and 0.5 mL of acetonitrile was added to the sample, capped and vortexed.
At the end of the experiment, the skin tissue was removed from the diffusion cell, rinsed with nanopure water, and blotted dry with a paper towel. The skin was tape stripped twice using book tape (Scotch™, 3M, St. Paul, Minn.) to remove drug formulation adhering to the tissue surface.

[1] = Plasma stability of cannabidiol prodrugs (bioconversion to parent drug); assay type: in vitro ADME; details: for % mono-prodrug at time (h) / % Di-prodrug at time (h): di-prodrug in plasma; for % mono-prodrug at time (h): mono-prodrug formed; for % Prodrug at time (h): mono-prodrug in plasma
Protocol: An approximated 1 mg/mL stock solution of each prodrug was prepared in 100 μL of ethanol and 900 μL of acetonitrile. Ten (10) μL of stock was spiked into 1 mL of plasma and vortexed. The samples were kept sealed in an amber vial and samples were obtained to analyze for bioconversion to parent drug.

[2] = Table 18, 90:8:2 PG:H2O:IPM donor solution, CBD from applied prodrug
[3] = Table 18, 90:8:2 PG:H2O:IPM donor solution, as applied compound (CBD or intact prodrug)
[4] = Table 18, 90:8:2 PG:H2O:IPM donor solution, mono-prodrug from applied di-prodrug
[5] = Table 18, 90:8:2 PG:H2O:IPM donor solution, prodrug applied, as total cannabidiol equivalents
[6] = Table 18, 90:8:2 PG:H2O:IPM donor solution
[7] = Table 23, gel formulation, as applied compound (CBD or intact prodrug)
[8] = Table 23, gel formulation, mono-prodrug (ALL00149) from applied di-prodrug
[9] = Table 23, gel formulation, prodrug applied, as total cannabidiol equivalents
[10] = Table 23, gel formulation, CBD from applied prodrug

C=C(C)[C@@H]1CCC(C)=C[C@H]1c1c(OC=O)cc(CCCCC)cc1OC=O [ALL00145, CBD Diformate]
30 h cumulative amt (human abdominal skin; [2]): 17.2 ± 4.5 nmol
30 h skin conc (human abdominal skin; [2]): 8.8 ± 7.0 µmol/g
Flux (human abdominal skin; [2]): 1.4 ± 0.1 nmol/cm^2/h
Lag time (human abdominal skin; [2]): 17.4 ± 3.3 h
30 h skin conc (human abdominal skin; [3]): 3.8 ± 2.1 µmol/g
30 h cumulative amt (human abdominal skin; [4]): 17.5 ± 6.1 nmol
30 h skin conc (human abdominal skin; [4]): 23.5 ± 19.3 µmol/g
Flux (human abdominal skin; [4]): 1.5 ± 0.6 nmol/cm^2/h
Lag time (human abdominal skin; [4]): 19.0 ± 1.9 h
30 h cumulative amt (human abdominal skin; [5]): 34.7 ± 7.0 nmol
30 h skin conc (human abdominal skin; [5]): 36.1 ± 28.2 µmol/g
Flux (human abdominal skin; [5]): 2.9 ± 0.7 nmol/cm^2/h
Lag time (human abdominal skin; [5]): 17.2 ± 2.5 h
Flux enhancement (human abdominal skin; [6]): 0.35
detected in the skin as (human abdominal skin; in donor solution): prodrug, mono-substituted prodrug, ALL00146, and cannabidiol
flux compared to cannabidiol (human abdominal skin; in donor solution): did not increase the flux
lag time compared to cannabidiol (human abdominal skin; in donor solution): wasn't decreased
share permeated through the skin as cannabidiol (human abdominal skin; in donor solution): approximately 50%
share permeated through the skin as mono-substituted prodrug (human abdominal skin; in donor solution): approximately 50%
total skin concentrations compared to cannabidiol (human abdominal skin; in donor solution): higher
% mono-prodrug at time (h) ([1]; Table 20, 0 h): 40%
% mono-prodrug at time (h) ([1]; Table 20, 0.5 h): 44%
% mono-prodrug at time (h) ([1]; Table 20, 22 h): 23%
% mono-prodrug at time (h) ([1]; Table 20, 24 h): 11%
% Di-prodrug at time (h) ([1]; Table 20, 0 h): 60%
% Di-prodrug at time (h) ([1]; Table 20, 0.5 h): 45%
% Di-prodrug at time (h) ([1]; Table 20, 22 h): 37%
% Di-prodrug at time (h) ([1]; Table 20, 24 h): 13%

C=C(C)[C@@H]1CCC(C)=C[C@H]1c1c(OC(=O)CO)cc(CCCCC)cc1OC(=O)CO [ALL00147, CBD Diglycolate]
30 h cumulative amt (human abdominal skin; [2]): 8.2 ± 7.0 nmol
30 h skin conc (human abdominal skin; [2]): 3.9 ± 0.8 µmol/g
Flux (human abdominal skin; [2]): 0.7 ± 0.6 nmol/cm^2/h
Lag time (human abdominal skin; [2]): 16.7 ± 0.7 h
30 h cumulative amt (human abdominal skin; [3]): 11.7 ± 3.8 nmol
30 h skin conc (human abdominal skin; [3]): 6.3 ± 5.6 µmol/g
Flux (human abdominal skin; [3]): 0.7 ± 0.01 nmol/cm^2/h
Lag time (human abdominal skin; [3]): 13.0 ± 5.9 h
30 h cumulative amt (human abdominal skin; [4]): 9.1 ± 0.2 nmol
30 h skin conc (human abdominal skin; [4]): 7.1 ± 6.3 µmol/g
Flux (human abdominal skin; [4]): 0.6 ± 0.2 nmol/cm^2/h
Lag time (human abdominal skin; [4]): 11.8 ± 5.9 h
30 h cumulative amt (human abdominal skin; [5]): 29.0 ± 3.4 nmol
30 h skin conc (human abdominal skin; [5]): 17.3 ± 12.6 µmol/g
Flux (human abdominal skin; [5]): 1.9 ± 0.8 nmol/cm^2/h
Lag time (human abdominal skin; [5]): 13.3 ± 5.0 h
Flux enhancement (human abdominal skin; [6]): 0.24
24 h cumulative amt (human abdominal skin; [7]): 0.9 nmol
24 h skin conc (human abdominal skin; [7]): 0.8 ± 0.7 µmol/g
24 h cumulative amt (human abdominal skin; [8]): 5.7 nmol
24 h skin conc (human abdominal skin; [8]): 8.7 ± 6.6 µmol/g
Flux (human abdominal skin; [8]): 0.25 nmol/cm^2/h
24 h cumulative amt (human abdominal skin; [9]): 12.5 nmol
24 h skin conc (human abdominal skin; [9]): 9.5 ± 7.3 µmol/g
Flux (human abdominal skin; [9]): 0.58 nmol/cm^2/h
Flux enhancement (human abdominal skin; Table 23, gel formulation): 2.0
detected in the skin as (human abdominal skin; in donor solution): prodrug, mono-substituted prodrug, ALL00149, and cannabidiol
flux compared to cannabidiol (human abdominal skin; in donor solution): did not increase the flux
lag time compared to cannabidiol (human abdominal skin; in donor solution): not decreased
permeated through the skin as (human abdominal skin; in donor solution): intact prodrug, mono-substituted prodrug (ALL00149), and cannabidiol
total skin concentrations compared to cannabidiol (human abdominal skin; in donor solution): not higher
detected in the skin as (human abdominal skin; in gel formulation): primarily as mono-prodrug, ALL00149 with a trace amount of ALL00147
increase of the flux compared to cannabidiol (human abdominal skin; in gel formulation): 2 fold
share permeated through the skin as cannabidiol (human abdominal skin; in gel formulation): 47.2%
share permeated through the skin as intact di-prodrug (human abdominal skin; in gel formulation): 7.2%
share permeated through the skin as mono-prodrug (human abdominal skin; in gel formulation): 45.6%
total skin concentrations compared to cannabidiol (human abdominal skin; in gel formulation): weren't higher
% mono-prodrug at time (h) ([1]; Table 20, 0.5 h): 0%
% mono-prodrug at time (h) ([1]; Table 20, 2 h): 0%
% mono-prodrug at time (h) ([1]; Table 20, 22 h): 0%
% mono-prodrug at time (h) ([1]; Table 20, 24 h): 0%
% Di-prodrug at time (h) ([1]; Table 20, 0 h): 100%
% Di-prodrug at time (h) ([1]; Table 20, 0.5 h): 55%
% Di-prodrug at time (h) ([1]; Table 20, 2 h): 32%
% Di-prodrug at time (h) ([1]; Table 20, 22 h): 13%
% Di-prodrug at time (h) ([1]; Table 20, 24 h): 12%
% mono-prodrug at time (h) ([1]; Table 24, 0 h): 3%
% mono-prodrug at time (h) ([1]; Table 24, 0.5 h): 37%
% mono-prodrug at time (h) ([1]; Table 24, 1 h): 10%
% mono-prodrug at time (h) ([1]; Table 24, 2 h): 2%
% Di-prodrug at time (h) ([1]; Table 24, 0 h): 97%
% Di-prodrug at time (h) ([1]; Table 24, 0.5 h): 0%
% Di-prodrug at time (h) ([1]; Table 24, 1 h): 0%
% Di-prodrug at time (h) ([1]; Table 24, 2 h): 0%

C=C(C)[C@@H]1CCC(C)=C[C@H]1c1c(O)cc(CCCCC)cc1OC(=O)CO [ALL00149, CBD Glycolate]
24 h cumulative amt (human abdominal skin; [10]): 1.2 nmol
24 h skin conc (human abdominal skin; [10]): 0.9 ± 0.0 µmol/g
24 h cumulative amt (human abdominal skin; [7]): 5.8 nmol
24 h skin conc (human abdominal skin; [7]): 46.0 ± 11.5 µmol/g
Flux (human abdominal skin; [7]): 0.29 nmol/cm^2/h
Lag time (human abdominal skin; [7]): 6.4 h
24 h cumulative amt (human abdominal skin; [9]): 6.9 nmol
24 h skin conc (human abdominal skin; [9]): 46.3 ± 11.8 µmol/g
Flux (human abdominal skin; [9]): 0.40 nmol/cm^2/h
Lag time (human abdominal skin; [9]): 6.2 h
Flux enhancement (human abdominal skin; Table 23, gel formulation): 1.4
detected in the skin as (human abdominal skin; in gel formulation): primarily ALL00149 with a trace amount of cannabidiol
lag time compared to cannabidiol (human abdominal skin; in gel formulation): lower
permeated through the skin as (human abdominal skin; in gel formulation): primarily ALL00149 with a trace amount of cannabidiol
total skin concentrations compared to cannabidiol (human abdominal skin; in gel formulation): higher
increase of the flux compared to cannabidiol (human abdominal skin; in gel formulation, unit not given): 1.4
% Prodrug at time (h) ([1]; Table 24, 0 h): 100%
% Prodrug at time (h) ([1]; Table 24, 0.5 h): 31%
% Prodrug at time (h) ([1]; Table 24, 1 h): 12%
% Prodrug at time (h) ([1]; Table 24, 2 h): 0%
